US20170290890A1, “STIMULATION OF OVARIAN FOLLICLE DEVELOPMENT AND OOCYTE MATURATION” (The Board of Trustees of the Leland Stanford Junior …, priority 2014, published 2017)

What was measured:
oocytes = assay: In vitro fertilization and embryo transfer of oocytes from pretreated grafts; type: in vivo, mice
Method: (§1) Using this model, we further treated the hosts with eCG for 2 days to promote the growth of preovulatory follicles, followed by an injection of hCG to promote oocyte maturation. At 12 h after hCG injection, mature oocytes were punctured from preovulatory follicles for in vitro fertilization.
Ovaries from B6D2F1 mice at 10 days of age were treated with 10 μM MHY1485 for 2 days, followed by transplantation into kidney capsules of hosts for 5 days. At day 5 after transplantation, animals were treated with 10 IU equine chorionic gonadotropin (eCG) for 48 h, followed by an injection of 10 IU human chorionic gonadotropin (hCG). Twelve hour later, grafts were collected and oocytes were retrieved in the M2 medium (Cytospring, Mountain View, Calif.). As controls, B6D2F1 mice at day 25 of age were treated with 5 IU eCG for 48 h, followed by 5 IU hCG before oocyte retrieval. For in vitro fertilization, sperm from B6D2F1 male mice were collected into human tubal fluid medium (Cytospring) and pre-incubated for 1 h at 37 C. Oocytes were then fertilized with sperm (2-3×10^5/ml) for 6 h, and inseminated oocytes were transferred into KSOM medium (Cytospring) for development into blastocysts. For embryo transfer, two-cell embryos were transferred into oviducts of pseudopregnant, 8-week-old CD1 nice pre-mated with vasectomized males of the same strain.

Ovaries from day 10 mice [1] = assay: Ovarian explant culture and follicle counting; type: cell-based; conditions: explant culture 4 days
Method: We treated ovaries from day 10 mice with increasing doses of MHY1485 using an explant culture model.
Ovaries from day 10 mice were placed on culture plate inserts (Millipore) and cultured in 400 μl of DMEM/F12 containing 0.1% BSA, 0.1% Albumax II, insulin-transferrin-selenium, 0.05 mg/ml L-ascorbic acid and penicillin-streptomycin under a membrane insert to cover ovaries with a thin layer of medium. Ovaries were treated with 1-10 μM of MHY1485 and cultured for 4 days with medium change after 2 days of culture. At the end of culture, ovaries were fixed with formalin before weighing. Some ovaries were paraffin-embedded and cut into continuous sections. Sections were stained with hematoxylin and eosin for follicle counting, and only follicles with clearly stained oocyte nucleus were counted to avoid recounting of the same follicle.

Ovaries from day 10 mice [2] = assay: Ovarian tissue grafting (in vitro treatment then allo-transplantation under kidney capsules); type: in vivo; conditions: 2 days in vitro treatment
Method: as §1
At the end of transplantation, grafts were collected for weight determination and histological analysis. For some animals, ovaries from day 10 mice were treated with IVA drugs (PTEN inhibitor: (bpv(hopic) at 30 μM for the first day and an activator for phosphoinositol-3-kinase 740YP at 150 μg/mL for two days) before grafting.

mTOR signaling pathway = assay: Immunoblotting of mTOR pathway protein phosphorylation in ovaries; type: cell-based, mice; conditions: day 10 mouse ovaries, 3 h, 10 μM, FIG. 1A
Method: Ovaries from day 10 mice were incubated for 3 h with 10 μM of MHY1485 before immunoblotting analyses. […] Activated mTORC1 complex phosphorylates Thr389 in ribosomal S6 kinase (S6K), thereby activating it to subsequently phosphorylate ribosomal protein S6 (rpS6) and promote ribosome biogenesis. We further monitored S6K1 and rpS6 phosphorylation in ovarian tissues.
Ovaries from mice at day 10 of age were treated with MHY1485 (Millipore, Bedford, Mass.) for 3 h and proteins were extracted using M-PER Mammalian Protein Extraction Reagent (Thermo, Rockford, Ill.) containing a protease inhibitor cocktail (Thermo). Protein concentrations in supernatants were determined by the bicinchoninic acid method (Pierce, Rockford, Ill., USA). Equal amounts of protein lysates were loaded on 4-12% NuPAGE Bis-Tris gels (Invitrogen, Carlsbad, Calif.) in MOPS buffer and transferred to […] pore nitrocellulose membranes (LI-COR, Lincoln, Nebr., USA). First antibodies were from Cell Signaling (Beverly, Mass.) and rabbit secondary antibodies from LI-COR. Images were generated using a LI-COR Odyssey infrared imager.

PTEN = PTEN (Homo sapiens, UniProt P60484); conditions: cited from earlier work
PTP = conditions: cited from earlier work
[3] = grafts 5 days with FSH, FIG. 2C

PTEN, sequence (P60484 whole entry): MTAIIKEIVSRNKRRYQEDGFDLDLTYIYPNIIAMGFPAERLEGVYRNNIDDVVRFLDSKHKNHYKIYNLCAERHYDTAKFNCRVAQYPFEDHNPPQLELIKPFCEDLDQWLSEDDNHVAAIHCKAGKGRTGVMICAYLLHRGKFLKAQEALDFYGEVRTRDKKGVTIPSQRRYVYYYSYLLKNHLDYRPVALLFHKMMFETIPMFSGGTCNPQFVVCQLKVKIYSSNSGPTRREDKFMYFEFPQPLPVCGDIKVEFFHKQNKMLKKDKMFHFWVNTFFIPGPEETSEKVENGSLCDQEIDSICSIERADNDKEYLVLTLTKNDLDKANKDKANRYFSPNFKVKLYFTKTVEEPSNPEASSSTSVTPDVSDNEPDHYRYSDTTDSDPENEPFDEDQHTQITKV

## O=[N+]([O-])c1ccc(Nc2nc(N3CCOCC3)nc(N3CCOCC3)n2)cc1 [MHY1485, 4,6-Di-4-morpholinyl-N-(4-nitrophenyl)-1,3,5-triazin-2-amine]
oocytes; 10 μM 2 days, graft 5 days, eCG then hCG, oocytes fertilized, FIG. 3A
  development of oocytes after in vitro fertilization: could develop into blastocysts
oocytes; FIG. 3C
  outcome of 2-cell embryo transfer into pseudopregnant surrogate mothers: healthy pups were delivered
oocytes; percentage of oocytes developing into each embryonic stage, FIG. 3B
  early embryonic development vs oocytes from day 25 mice (controls): comparable early embryonic development
Ovaries from day 10 mice [1]; 1-10 μM, FIG. 1B
  ovarian weights: dose-dependent increases
Ovaries from day 10 mice [1]; FIG. 1C, 1D
  follicle growth (histology, follicle counting): enhancement of follicle growth from early secondary to the late secondary stage
Ovaries from day 10 mice [2]; grafted into adult hosts, daily FSH 5 days, FIG. 2A
  graft weights: increased
Ovaries from day 10 mice [2]; grafts 5 days with FSH, FIG. 2B, 2C
  antral/preovulatory follicles: increases in the development of antral/preovulatory follicles
Ovaries from day 10 mice [2]; [3]
  early secondary follicles: decrease of early secondary follicles
  primary follicles: increase of primary follicles
mTOR signaling pathway
  phospho-mTOR levels: increased
  phosphorylation of S6K1: increased
  phosphorylation of rpS6: increased

## O=C([O-])c1ccccn1.OO.OO.[K+].[K+].[OH-].[V] [dipotassium bisperoxo(picolinato)oxovanadate (V)]
PTEN
  IC50: 31 nM

## OO.OO.[K+].[OH-].[V].c1cnc2c(c1)ccc1cccnc12 [potassium bisperoxo (1,10-phenanthroline)oxovanadate (V)]
PTEN
  IC50: 38 nM

## dipotassium bisperoxo(5-hydroxypyridine-2-carboxyl)oxovanadate (V)
PTEN
  IC50: 14 nM

## monoperoxo(picolinato)oxovanadate(V)
PTP
  IC50: 18000 nM

## potassium bisperoxo(bipyridine)oxovanadate (V)
PTEN
  IC50: 18 nM
